28 compounds from ChEMBL document CHEMBL3769355, “Fragment-Based Design of Selective Nanomolar Ligands of the CREBBP Bromodomain” (J Med Chem, 2016) can be followed below.

pIC50, pKd: −log10 of the molar value. Calls of active or inactive are those of the source. The calls are words filed in the database; no cut-off is given here. A value given as a limit tells only on which side of the number the result lay.

One may read the pIC50 as −log10 of the IC50, conventionally taken in molar units. As usually defined, the ΔTm is the change in melting temperature against a reference sample. As a reminder, the pKd is the negative decadic logarithm of the Kd, by convention in mol/L. In general, GI50 refers to the concentration that inhibits growth by half.

For assay [1], the target named is T1, CREB-binding protein (Homo sapiens, UniProt Q92793). Nature of the assay: Inhibition of human recombinant GST-tagged CREBBP using non acetylated ligand 1 as substrate incubated for 2 hrs by TR-FRET assay.
The target in assay [2] is T1, CREB-binding protein. The experiment in a line: Binding affinity to human His-tagged CREBBP expressed in Escherichia coli BL21(DE3) cells at 100 uM by SYPRO orange staining based fluorescence thermal shift assay.
Target sequence in this assay (Q92793 2-2442 limits assumed): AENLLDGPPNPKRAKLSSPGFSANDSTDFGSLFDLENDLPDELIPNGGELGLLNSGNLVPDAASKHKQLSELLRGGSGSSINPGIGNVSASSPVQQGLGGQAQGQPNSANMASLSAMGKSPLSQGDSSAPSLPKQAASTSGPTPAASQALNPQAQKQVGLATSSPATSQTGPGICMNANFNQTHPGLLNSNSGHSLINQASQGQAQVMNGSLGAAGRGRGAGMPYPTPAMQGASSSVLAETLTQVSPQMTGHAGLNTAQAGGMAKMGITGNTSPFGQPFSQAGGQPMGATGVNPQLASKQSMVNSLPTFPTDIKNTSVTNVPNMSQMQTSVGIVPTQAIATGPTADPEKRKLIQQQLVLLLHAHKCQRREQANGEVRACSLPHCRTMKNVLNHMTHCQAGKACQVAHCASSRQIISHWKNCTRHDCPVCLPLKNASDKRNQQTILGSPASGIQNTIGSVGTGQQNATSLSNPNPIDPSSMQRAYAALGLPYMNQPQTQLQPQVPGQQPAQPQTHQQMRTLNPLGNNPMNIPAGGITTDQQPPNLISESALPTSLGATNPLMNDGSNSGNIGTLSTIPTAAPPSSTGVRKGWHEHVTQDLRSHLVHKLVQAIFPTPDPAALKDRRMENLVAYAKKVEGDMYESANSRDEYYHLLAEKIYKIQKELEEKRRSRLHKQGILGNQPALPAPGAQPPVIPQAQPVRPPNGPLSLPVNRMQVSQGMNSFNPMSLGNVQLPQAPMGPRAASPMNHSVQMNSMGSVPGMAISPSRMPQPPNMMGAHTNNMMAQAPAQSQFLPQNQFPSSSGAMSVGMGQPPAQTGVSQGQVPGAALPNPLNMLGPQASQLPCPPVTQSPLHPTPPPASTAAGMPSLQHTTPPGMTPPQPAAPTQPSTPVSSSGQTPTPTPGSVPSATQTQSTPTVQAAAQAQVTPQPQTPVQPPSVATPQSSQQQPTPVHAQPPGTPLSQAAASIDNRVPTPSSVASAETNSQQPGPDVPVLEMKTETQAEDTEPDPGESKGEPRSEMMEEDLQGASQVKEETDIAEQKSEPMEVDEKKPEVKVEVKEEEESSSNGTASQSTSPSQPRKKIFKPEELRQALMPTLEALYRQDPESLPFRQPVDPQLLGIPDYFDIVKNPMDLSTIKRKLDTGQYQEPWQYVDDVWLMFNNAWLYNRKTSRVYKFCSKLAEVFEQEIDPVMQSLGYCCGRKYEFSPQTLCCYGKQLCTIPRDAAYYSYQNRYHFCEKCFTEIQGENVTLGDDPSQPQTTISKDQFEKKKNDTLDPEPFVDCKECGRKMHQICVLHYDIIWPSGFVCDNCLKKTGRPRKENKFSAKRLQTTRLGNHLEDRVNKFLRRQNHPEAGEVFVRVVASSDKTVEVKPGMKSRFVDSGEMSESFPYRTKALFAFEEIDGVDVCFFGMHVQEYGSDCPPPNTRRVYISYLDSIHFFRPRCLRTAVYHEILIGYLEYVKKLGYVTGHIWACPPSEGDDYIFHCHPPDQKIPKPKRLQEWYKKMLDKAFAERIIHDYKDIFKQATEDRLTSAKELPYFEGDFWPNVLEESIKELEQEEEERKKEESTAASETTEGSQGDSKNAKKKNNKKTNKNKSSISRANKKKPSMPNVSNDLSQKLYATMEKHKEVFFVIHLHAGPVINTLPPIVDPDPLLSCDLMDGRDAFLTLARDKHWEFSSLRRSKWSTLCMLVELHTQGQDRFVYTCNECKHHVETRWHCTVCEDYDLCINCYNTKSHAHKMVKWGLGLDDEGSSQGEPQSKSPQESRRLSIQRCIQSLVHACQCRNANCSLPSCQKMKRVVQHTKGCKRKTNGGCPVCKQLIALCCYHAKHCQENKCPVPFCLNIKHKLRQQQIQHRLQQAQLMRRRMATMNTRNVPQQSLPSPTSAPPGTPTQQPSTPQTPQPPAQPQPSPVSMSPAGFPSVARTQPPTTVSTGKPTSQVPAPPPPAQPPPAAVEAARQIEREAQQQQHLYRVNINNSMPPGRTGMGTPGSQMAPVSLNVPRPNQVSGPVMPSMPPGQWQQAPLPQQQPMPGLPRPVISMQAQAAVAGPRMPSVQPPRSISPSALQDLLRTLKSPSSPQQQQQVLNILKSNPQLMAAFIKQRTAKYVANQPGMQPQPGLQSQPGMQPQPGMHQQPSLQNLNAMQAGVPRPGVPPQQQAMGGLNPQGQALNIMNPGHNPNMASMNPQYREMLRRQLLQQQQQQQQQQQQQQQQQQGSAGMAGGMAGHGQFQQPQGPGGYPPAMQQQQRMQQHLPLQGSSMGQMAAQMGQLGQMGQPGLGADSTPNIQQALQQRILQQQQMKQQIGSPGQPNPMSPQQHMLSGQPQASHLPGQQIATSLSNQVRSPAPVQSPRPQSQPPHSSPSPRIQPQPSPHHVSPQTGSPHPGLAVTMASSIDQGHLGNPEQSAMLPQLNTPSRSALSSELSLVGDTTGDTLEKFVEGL
Assay [3] deals with Histone acetyltransferase p300 (Homo sapiens) (UniProt Q09472). Nature of the assay: Binding affinity to EP300 (unknown origin) at 100 uM by SYPRO orange staining based fluorescence thermal shift assay.
Assay [4] addresses T1, CREB-binding protein. The experiment in a line: Binding affinity to human His-tagged CREBBP expressed in Escherichia coli BL21(DE3) cells at 50 uM by SYPRO orange staining based fluorescence thermal shift assay.
Target sequence in this assay (Q92793 2-2442 limits assumed): as above
For assay [5], the target named is Histone acetyltransferase p300 (Homo sapiens) (UniProt Q09472). The experiment in a line: Binding affinity to EP300 (unknown origin) at 50 uM by SYPRO orange staining based fluorescence thermal shift assay.
The target in assay [6] is T2, Bromodomain-containing protein 2 (Homo sapiens, UniProt P25440). The experiment in a line: Competitive binding affinity to human BRD2 bromodomain 2 expressed in T7 phage-infected Escherichia coli BL21(DE3) cells incubated for 1 hr by bromoscan assay.
T2 sequence (P25440 whole entry): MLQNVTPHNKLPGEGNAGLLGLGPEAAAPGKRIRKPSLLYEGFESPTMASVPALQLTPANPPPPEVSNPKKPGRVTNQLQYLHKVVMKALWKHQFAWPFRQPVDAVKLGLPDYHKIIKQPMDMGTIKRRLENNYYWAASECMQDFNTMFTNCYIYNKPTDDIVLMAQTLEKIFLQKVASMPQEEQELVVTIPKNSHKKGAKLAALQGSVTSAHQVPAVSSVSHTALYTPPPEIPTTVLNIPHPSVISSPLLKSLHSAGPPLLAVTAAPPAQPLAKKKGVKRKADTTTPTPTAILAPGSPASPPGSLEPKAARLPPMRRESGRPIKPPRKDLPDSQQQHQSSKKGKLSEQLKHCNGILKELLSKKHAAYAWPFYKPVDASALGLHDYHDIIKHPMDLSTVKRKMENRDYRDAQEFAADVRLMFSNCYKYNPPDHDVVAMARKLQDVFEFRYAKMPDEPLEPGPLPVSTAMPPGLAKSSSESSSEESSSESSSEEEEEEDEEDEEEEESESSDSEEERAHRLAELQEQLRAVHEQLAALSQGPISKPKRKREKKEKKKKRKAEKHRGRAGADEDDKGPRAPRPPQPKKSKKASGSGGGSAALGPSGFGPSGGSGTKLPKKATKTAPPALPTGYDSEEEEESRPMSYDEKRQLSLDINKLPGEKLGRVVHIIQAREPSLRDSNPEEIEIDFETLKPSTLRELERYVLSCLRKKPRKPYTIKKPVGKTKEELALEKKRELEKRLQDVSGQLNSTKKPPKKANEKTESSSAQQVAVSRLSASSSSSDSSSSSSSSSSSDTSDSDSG
Assay [7] deals with T3, Bromodomain-containing protein 4 (Homo sapiens, UniProt O60885). The experiment in a line: Competitive binding affinity to human BRD4 bromodomain 2 expressed in T7 phage-infected Escherichia coli BL21(DE3) cells incubated for 1 hr by bromoscan assay.
In assay [8] the target is T1, CREB-binding protein. Nature of the assay: Competitive binding affinity to human His-tagged CREBBP expressed in T7 phage-infected Escherichia coli BL21(DE3) cells incubated for 1 hr by bromoscan assay.
In the next assay the test system is MOLM-13. Nature of the assay: (§1) Cytotoxicity against human MOLM13 cells assessed as assessed as growth inhibition after 48 hrs by resazurin assay. Format: functional. For orientation: The colour change of resazurin is a common sign of viable cells or microbes.
For the next assay, the system named is HL-60. Nature of the assay: Cytotoxicity against human HL60 cells assessed as assessed as growth inhibition after 48 hrs by resazurin assay. Format: functional, cell-based.
In assay [9] the target is T3, Bromodomain-containing protein 4. Nature of the assay: Binding affinity to human BRD4 bromodomain 1 expressed in Escherichia coli BL21(DE3) cells at 100 uM by SYPRO orange staining based fluorescence thermal shift assay.
The target in assay [10] is T2, Bromodomain-containing protein 2. Nature of the assay: Competitive binding affinity to human BRD2 bromodomain 1 expressed in T7 phage-infected Escherichia coli BL21(DE3) cells incubated for 1 hr by bromoscan assay.
Assay [11] has as its target T1, CREB-binding protein. Nature of the assay: Binding affinity to human His-tagged CREBBP expressed in Escherichia coli BL21(DE3) cells by isothermal titration calorimetry.
The target in assay [12] is T3, Bromodomain-containing protein 4. The experiment in a line: Competitive binding affinity to human BRD4 bromodomain 1 expressed in T7 phage-infected Escherichia coli BL21(DE3) cells incubated for 1 hr by bromoscan assay.
The next assay deals with ML-2. Nature of the assay: (§2) Cytotoxicity against human ML2 cells assessed as growth inhibition after 48 hrs by resazurin assay. The assay is classed as functional.
Assay [13] addresses T1, CREB-binding protein. Nature of the assay: Competitive binding affinity to human His-tagged CREBBP expressed in T7 phage-infected Escherichia coli BL21(DE3) cells at 25 uM incubated for 1 hr by bromoscan assay relative to control.
Target sequence in this assay (Q92793 2-2442 limits assumed): as the sequence (Q92793 2-2442 limits assumed) above
The nature of assay [14]: as §1. The assay is classed as functional. The settings on record: MOLM-13, 48 h.
Assay [15] is described as follows: as §2. The assay is classed as functional. As to conditions: ML-2, 48 h.
For assay [16], the target named is T1, CREB-binding protein. Nature of the assay: Competitive binding affinity to human His-tagged CREBBP expressed in T7 phage-infected Escherichia coli BL21(DE3) cells at 50 uM incubated for 1 hr by bromoscan assay relative to control.
Target sequence in this assay (Q92793 2-2442 limits assumed): as above

In the case of `CCOc1ccc(C(C)=O)cc1NC(=O)c1cccc(S(=O)(=O)Nc2ccccc2)c1`, the pIC50 at CREB-binding protein [1] is below 5.00. Moreover, the ΔTm (at CREB-binding protein [2]; in [3]) was 0 °C in each case.
Regarding `CCOc1ccc(C(C)=O)cc1NC(=O)c1cc(C(=O)O)cc(-c2ccncc2)c1`, the pIC50 at CREB-binding protein [1] was 5.52. In addition, the values for the ΔTm (on CREB-binding protein [4]; in assay [5]) were 4.1 °C and 3.9 °C, respectively.
Take `CCOc1ccc(C(C)=O)cc1NC(=O)c1cc(COC)cc(C(=O)O)c1`: the negative-log IC50 (pIC50) at CREB-binding protein [1] is 5.70. Also, the pKd in assay [6] is below 4.30; in assay [7], below 4.30; on CREB-binding protein [8] it was 6.28; in assay [10], below 4.30; on CREB-binding protein [11], 6.10; in [12], 4.60. Also, the “growth inhibition (GI)” value with MOLM-13, with HL-60 and in the assay with ML-2 was “Active” throughout. The ΔTm on CREB-binding protein [2] worked out at 5.1 °C; in assay [9] it was 1.3 °C; in assay [3] it was 4.6 °C.
As for `CC(=O)c1cccc(NC(=O)Cn2c(=O)c3ccccc3n3nc(C)cc23)c1`, the Activity on CREB-binding protein [13] was 22%.
For `CCOc1ccc(C(C)=O)cc1NC(=O)c1cc(COC2CCCCO2)cc(C(=O)O)c1` (stereo unspecified), the pIC50 on CREB-binding protein [1] was 6.00. For the same compound, the pKd at CREB-binding protein [8] was 6.43. In addition, the GI50 in assay [14] was found to be 5.3 µM; in assay [15] it was 14.4 µM. Moreover, the “growth inhibition (GI)” value with HL-60 is “Active”. Moreover, the ΔTm at CREB-binding protein [2] came out at 6 °C; in assay [9], 1.7 °C; in assay [3], 5.9 °C.
In the case of `CCOc1ccc(C(C)=O)cc1NC(=O)C1CC1C(=O)O` (stereo unspecified), the pIC50 at CREB-binding protein [1] was below 4.00. For the same compound, on CREB-binding protein [2], the ΔTm came out at 1.1 °C.
In turn, `CC(=O)c1cccc(NC(=O)N2C[C@@H](C)O[C@@H](c3ccccc3)C2)c1` showed an Activity on CREB-binding protein [16] of 9.4%.
For `CC(=O)c1ccc(OCC(C)C)c(NC(=O)c2cccc(C(=O)O)c2)c1`, the “growth inhibition (GI)” value in the assay with MOLM-13, in the assay with HL-60 and in the assay on ML-2 was “Active” each time. For the same compound, the ΔTm at CREB-binding protein [2] turned out to be 3.5 °C; in [3] it was 3 °C.
`CCOc1ccc(C(C)=O)cc1NC(=O)c1cc(CO)cc(C(=O)O)c1`: the pIC50 at CREB-binding protein [1] was 5.52. Also, the “growth inhibition (GI)” value with MOLM-13, with HL-60 and in the assay on ML-2 was “Active” throughout. Also, the ΔTm amounted to 3.8 °C on CREB-binding protein [2] and 3.7 °C in assay [3].
For the compound `CC(=O)c1ccc(N2CCOCC2)c(NC(=O)c2cccc(C(=O)O)c2)c1`, the ΔTm at CREB-binding protein [2] worked out at 1.4 °C; in [3], 1.3 °C.
For `CC(=O)c1ccc(C2CC2)c(NC(=O)c2cccc(C(=O)O)c2)c1`, the pIC50 at CREB-binding protein [1] is 4.82. The thermal shift (ΔTm) (at CREB-binding protein [2]; in assay [3]) was 3.1 °C each time.
At CREB-binding protein [8], `CCOc1ccc(C(=O)NC)cc1NC(=O)c1cccc(C(=O)O)c1` showed a pKd of 4.43. Besides, at CREB-binding protein [2], the ΔTm came out at 1.1 °C.
Consider `COc1ccc(C(C)=O)cc1NC(=O)/C=C/C(=O)O`, for which, on CREB-binding protein [1], the pIC50 is 4.22. Besides, the ΔTm at CREB-binding protein [2] came out at 1.1 °C.
Regarding `CC(=O)c1ccc(F)c(NC(=O)/C=C/C(=O)O)c1`, the pIC50 at CREB-binding protein [1] is below 4.00. In addition, the ΔTm at CREB-binding protein [2] is -0.1 °C.
Take `CCOc1ccc(C(C)=O)cc1NC(=O)c1cccc(C(=O)O)c1`: at CREB-binding protein [1], the pIC50 was 5.06. Also, the pKd in [6] is below 4.30; in [7], below 4.30; on CREB-binding protein [8], 6.17; in assay [10], below 4.30; at CREB-binding protein [11], 5.70; in assay [12], below 4.30. The “growth inhibition (GI)” value in the assay with MOLM-13, with HL-60 and in the assay on ML-2 was “Active” in each case. In addition, the ΔTm turned out to be 3.8 °C at CREB-binding protein [2], 0.4 °C in assay [9] and 3.4 °C in assay [3].
In the case of `CCOc1ccc(C(C)=O)cc1NC(=O)c1ccccc1C(=O)O`, on CREB-binding protein [1], the negative logarithm of the IC50 (pIC50) is 4.19. Also, the ΔTm at CREB-binding protein [2] turned out to be 1.9 °C.
On to `CCOc1ccc(C(C)=O)cc1NC(=O)c1cccc(-n2cnnn2)c1`, for which the pIC50 at CREB-binding protein [1] was 5.12. The ΔTm on CREB-binding protein [2] stood at 3.3 °C; in [3], 2.6 °C.
Turning to `CCOc1ccc(C(C)=O)cc1NC(=O)c1cccc(NS(=O)(=O)c2ccccc2)c1`, the ΔTm turned out to be 0.5 °C at CREB-binding protein [2] and 0.4 °C in assay [3].
In turn, `CC(=O)c1cccc(NC(=O)c2c(-n3cnnn3)sc(C)c2C)c1` gave a pKd at CREB-binding protein [8] of 4.54. The Activity at CREB-binding protein [13] came to 2%.
On to `CC(=O)c1ccc(C)c(NC(=O)/C=C/C(=O)O)c1`, for which the pIC50 at CREB-binding protein [1] is below 4.00. Further, the ΔTm at CREB-binding protein [2] came to 0.2 °C.
The corresponding values for `CC(=O)c1cccc(NC(=O)/C=C/C(=O)O)c1` are 4.52 and 0.1 °C.
Take `CC(=O)c1ccc(OCC2CC2)c(NC(=O)c2cccc(C(=O)O)c2)c1`: the “growth inhibition (GI)” value in the assay with MOLM-13, in the assay with HL-60 and in the assay on ML-2 was “Active” in each case. Further, the shift in melting temperature (ΔTm) came out at 3.4 °C at CREB-binding protein [2] and 3.6 °C in [3].
In the case of `CCOc1ccc(C(C)=O)cc1C(=O)Nc1cccc(C(=O)O)c1`, the pKd at CREB-binding protein [8] was 5.60. Further, the “growth inhibition (GI)” value with MOLM-13, with HL-60 and in the assay with ML-2 was “Active” in each case. The thermal shift (ΔTm) on CREB-binding protein [2] worked out at 3.4 °C.
For `CC(=O)c1ccc(OCc2ccccc2)c(NC(=O)c2cccc(C(=O)O)c2)c1`, the values for the ΔTm (on CREB-binding protein [2]; in assay [3]) were 3.3 °C and 2.6 °C, respectively.
Regarding `CCOc1ccc(C(C)=O)cc1NC(=O)c1cccc(C(=O)OC)c1`, on CREB-binding protein [1], the pIC50 is 5.30. For the same compound, the pKd at CREB-binding protein [8] is 6.31. Besides, the ΔTm on CREB-binding protein [2] worked out at 2.8 °C.
Consider `CCCOc1ccc(C(C)=O)cc1NC(=O)c1cccc(C(=O)O)c1`, for which the pIC50 on CREB-binding protein [1] is 5.13. Further, the “growth inhibition (GI)” value in the assay on MOLM-13, in the assay on HL-60 and in the assay with ML-2 was “Active” each time. Further, the thermal shift (ΔTm) at CREB-binding protein [2] is 3.8 °C; in assay [3], 3.4 °C.
The compound `CCOc1ccc(C(C)=O)cc1NC(=O)/C=C/C(=O)O` showed a pKd on CREB-binding protein [8] of 5.33. Further, the ΔTm on CREB-binding protein [2] was 1.8 °C. The Activity at CREB-binding protein [16] came to 2.5%.
With `CCOc1ccc(C(C)=O)cc1NC(=O)c1cc(C(=O)O)cc(-c2ccoc2)c1`, the pIC50 on CREB-binding protein [1] is 6.00. The pKd in assay [6] is 4.62; in assay [7], below 4.44; on CREB-binding protein [8], 6.77; in assay [10], 4.62; on CREB-binding protein [11], 6.52; in [12], 5.01. Besides, the “growth inhibition (GI)” value with MOLM-13, in the assay with HL-60 and in the assay with ML-2 was “Active” throughout. The ΔTm on CREB-binding protein [2] was 5.2 °C; in [9], 1.5 °C; in [3] it was 5.9 °C.
